Measured values as given in BindingDB's records for doi:10.1021/jm9701583 (R.W. Johnson Pharmaceutical Research Institute, 1997).

Biological target: DNA gyrase (Escherichia coli)
Test: Inhibition of supercoiling activity of DNA gyrase in Escherichia coli

| SMILES | IC50 |
| --- | --- |
| COc1cc(C(C)N(O)C(=O)c2ccccc2-c2ccccc2C(=O)O)cc(OC)c1OC (stereo unspecified) | > 1100 µM |
| CC(c1ccccc1)N(O)C(=O)c1ccccc1-c1ccccc1C(=O)O (stereo unspecified) | > 1380 µM |
| CC(c1ccc(N2CCN(c3ccccc3)CC2)cc1)N(O)C(=O)c1ccccc1-c1ccccc1C(=O)O (stereo unspecified) | > 958 µM |

More lines, in order of falling IC50, values ahead:

| IC50 | SMILES |
| --- | --- |
| 1360 µM | CC(c1ccc2c(c1)Nc1ccccc1S2)N(O)C(=O)c1ccccc1-c1ccccc1C(=O)O (stereo unspecified) |
| 205 µM | CC(c1ccc2c(ccc3ccccc32)c1)N(O)C(=O)c1ccccc1-c1ccccc1C(=O)O (stereo unspecified) |
| 121 µM | CC(c1ccc2oc(-c3ccccc3)cc2c1)N(O)C(=O)c1ccccc1-c1ccccc1C(=O)O (stereo unspecified) |
